Molecules are shown by their SMILES.

This note sets out measurements from patent US20250346597A1, “CONDENSED HETEROCYCLIC COMPOUNDS AS INHIBITOR OF DIACYLGLYCEROL KINASES” (BEONE MEDICINES I GMBH, priority 2023, published 2025).

One experiment addresses DGKα (Homo sapiens (Human), UniProt P23743). Nature of the experiment: Biochemical DGK IC50 assay (ADP-Glo, lipid micelle substrate), DGKα. Note: full length DGKα 7.5 nM. The note with it: full length DGKα […], ATP 140 μM, DAG 80 μM. In a few lines: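 Full-length human DGKα assayed by ADP-Glo with DAG/PS lipid micelle substrate at room temperature in 50 mM HEPES, 10 mM MgCl2, 0.01% BSA, 0.1 mM Na3VO4, 0.005% Tween-20, 0.01 mM CaCl2.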

The target in another experiment is DGKζ (Homo sapiens (Human), UniProt Q13574). Nature of the experiment: Biochemical DGK IC50 assay (ADP-Glo, lipid micelle substrate), DGKζ. The note with it: full length DGKζ 0.5 nM, ATP 140 μM, DAG 80 μM. The method in brief:
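Full-length human His-TEV-tagged DGKζ, expressed in Sf9 cells and purified, was run at room temperature on DAG/PS lipid micelles in 50 mM HEPES, 10 mM MgCl2, 0.01 mM CaCl2 buffer. After 1 h reaction, ADP formed was detected by ADP-Glo luminescence. IC50s came from inhibition across increasing compound concentrations.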

Sequence of DGKζ (Q13574 other isoform, or with tags, fused parts or gaps): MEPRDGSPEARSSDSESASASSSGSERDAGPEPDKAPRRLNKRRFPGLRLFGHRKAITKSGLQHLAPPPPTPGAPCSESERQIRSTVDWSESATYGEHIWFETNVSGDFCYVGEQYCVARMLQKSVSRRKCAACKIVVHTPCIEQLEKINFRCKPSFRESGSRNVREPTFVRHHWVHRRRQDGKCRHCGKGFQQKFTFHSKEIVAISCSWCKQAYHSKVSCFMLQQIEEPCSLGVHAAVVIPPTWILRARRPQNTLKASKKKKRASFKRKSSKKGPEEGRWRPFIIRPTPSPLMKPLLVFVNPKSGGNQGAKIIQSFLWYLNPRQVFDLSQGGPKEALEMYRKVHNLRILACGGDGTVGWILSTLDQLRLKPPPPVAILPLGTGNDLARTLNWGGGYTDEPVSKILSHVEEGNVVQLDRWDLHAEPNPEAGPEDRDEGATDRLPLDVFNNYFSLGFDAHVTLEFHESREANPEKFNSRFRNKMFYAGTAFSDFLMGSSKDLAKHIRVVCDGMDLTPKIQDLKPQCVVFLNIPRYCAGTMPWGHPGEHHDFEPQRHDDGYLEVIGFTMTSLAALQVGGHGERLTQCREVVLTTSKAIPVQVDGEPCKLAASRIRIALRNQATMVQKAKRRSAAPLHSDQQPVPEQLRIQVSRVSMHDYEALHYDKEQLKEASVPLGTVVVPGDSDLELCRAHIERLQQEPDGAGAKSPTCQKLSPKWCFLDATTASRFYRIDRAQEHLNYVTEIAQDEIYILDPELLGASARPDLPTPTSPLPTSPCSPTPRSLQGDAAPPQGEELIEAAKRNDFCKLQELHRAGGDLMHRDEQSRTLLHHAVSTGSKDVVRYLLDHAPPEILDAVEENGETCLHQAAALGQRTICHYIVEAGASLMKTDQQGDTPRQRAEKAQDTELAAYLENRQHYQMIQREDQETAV
Sequence of DGKα (P23743 whole entry): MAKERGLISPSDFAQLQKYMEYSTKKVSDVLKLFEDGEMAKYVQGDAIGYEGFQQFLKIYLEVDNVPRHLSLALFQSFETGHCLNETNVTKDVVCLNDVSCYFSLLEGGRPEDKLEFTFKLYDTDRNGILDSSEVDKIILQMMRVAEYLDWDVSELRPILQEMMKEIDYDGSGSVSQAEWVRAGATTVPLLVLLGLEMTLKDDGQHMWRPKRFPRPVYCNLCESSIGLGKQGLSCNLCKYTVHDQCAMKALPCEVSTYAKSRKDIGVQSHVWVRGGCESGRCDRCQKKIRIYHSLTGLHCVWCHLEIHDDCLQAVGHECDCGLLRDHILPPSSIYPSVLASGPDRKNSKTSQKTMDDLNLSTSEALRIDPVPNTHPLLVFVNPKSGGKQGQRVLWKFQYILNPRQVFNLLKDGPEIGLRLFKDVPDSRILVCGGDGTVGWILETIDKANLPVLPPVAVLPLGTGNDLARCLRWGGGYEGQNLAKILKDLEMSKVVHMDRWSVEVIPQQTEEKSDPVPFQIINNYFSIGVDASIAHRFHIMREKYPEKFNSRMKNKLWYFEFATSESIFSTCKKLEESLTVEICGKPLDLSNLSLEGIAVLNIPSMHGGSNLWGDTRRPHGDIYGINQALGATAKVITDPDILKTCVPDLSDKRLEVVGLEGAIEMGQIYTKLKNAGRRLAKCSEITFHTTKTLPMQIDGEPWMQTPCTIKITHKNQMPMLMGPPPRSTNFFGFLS

Turning to `CC[C@H]1CN(C(C)c2ccc(COC)cc2)[C@H](CC)CN1c1cc(=O)n(C)c2cn(CC#N)nc12` (stereo partly drawn) [Compound A205, 2-(7-((2S,5R)-2,5-diethyl-4-(1-(4-(methoxymethyl)phenyl)ethyl)piperazin-1-yl)-4-methyl-5-oxo-4,5-dihydro-2H-pyrazolo[4,3-b]pyridin-2-yl)acetonitrile], the figures for the IC50 at DGKα and at DGKζ were 215 nM and 142 nM, respectively.
For `CC[C@H]1CN(C(C)c2ccc3c(n2)CCC3)[C@H](CC)CN1c1cc(=O)n(C)c2cn(CC#N)nc12` (stereo partly drawn) [Compound A72, 2-(7-((2S,5R)-4-(1-(6,7-dihydro-5H-cyclopenta[b]pyridin-2-yl)ethyl)-2,5-diethylpiperazin-1-yl)-4-methyl-5-oxo-4,5-dihydro-2H-pyrazolo[4,3-b]pyridin-2-yl)acetonitrile] the same measures were 27 nM and 33 nM.
`CC[C@H]1CN(C(C)c2ccc3ncsc3c2)[C@H](CC)CN1c1nc(=O)n(C)c2cn(CC#N)nc12` (stereo partly drawn) [Compound A123, 2-(7-((2S,5R)-4-(1-(benzo[d]thiazol-6-yl)ethyl)-2,5-diethylpiperazin-1-yl)-4-methyl-5-oxo-4,5-dihydro-2H-pyrazolo[4,3-d]pyrimidin-2-yl)acetonitrile]: the IC50 was determined as 111 nM against DGKα and 11 nM at DGKζ.
The corresponding values for `CC[C@H]1CN(C(C)c2ccc3ncc(Cl)n3n2)[C@H](CC)CN1c1nc(=O)n(C)c2cn(CC#N)nc12` (single isomer, unassigned) [Compound A174a] are 6470 nM and 8850 nM.
As for `CC[C@H]1CN(C(C)c2ccc(C3CC3)nc2)[C@H](CC)CN1c1nc(=O)n(C)c2cn(CC#N)nc12` (single isomer, unassigned) [Compound A127b], the figures for the IC50 against DGKα and at DGKζ were 3360 nM and 3280 nM, respectively.
Turning to `CC[C@H]1CN(C(C)c2ccc3sc(C)nc3c2)[C@H](CC)CN1c1cc(=O)n(C)c2cn(CC#N)nc12` (stereo partly drawn) [Compound A108, 2-(7-((2S,5R)-2,5-diethyl-4-(1-(2-methylbenzo[d]thiazol-5-yl)ethyl)piperazin-1-yl)-4-methyl-5-oxo-4,5-dihydro-2H-pyrazolo[4,3-b]pyridin-2-yl)acetonitrile], the results for the IC50 against DGKα and on DGKζ were 2650 nM and 11 nM, respectively.
The corresponding values for `CC[C@H]1CN(C(C)c2ccc(C(F)(F)F)c(C)c2)[C@H](CC)CN1c1cc(=O)n(C)c2cn(CC#N)nc12` (stereo partly drawn) [Compound A8, 2-(7-((2S,5R)-2,5-diethyl-4-(1-(3-methyl-4-(trifluoromethyl)phenyl)ethyl)piperazin-1-yl)-4-methyl-5-oxo-4,5-dihydro-2H-pyrazolo[4,3-b]pyridin-2-yl)acetonitrile] are 1000 nM and 229 nM.
As for `CC[C@H]1CN(C(C)c2ccc3ccsc3c2)[C@H](CC)CN1c1cc(=O)n(C)c2cn(CC#N)nc12` (stereo partly drawn) [Compound A89, 2-(7-((2S,5R)-4-(1-(benzo[b]thiophen-6-yl)ethyl)-2,5-diethylpiperazin-1-yl)-4-methyl-5-oxo-4,5-dihydro-2H-pyrazolo[4,3-b]pyridin-2-yl)acetonitrile], the IC50 at DGKα turned out to be 28 nM; against DGKζ, 34 nM.
`CC[C@H]1CN(C(C)c2ccc3nc(OC4CC4)sc3n2)[C@H](CC)CN1c1cc(=O)n(C)c2cn(CC#N)nc12` (single isomer, unassigned) [Compound A146a]: the results for the IC50 against DGKα and at DGKζ were 2400 nM and 1750 nM, respectively.
The corresponding values for `CC[C@H]1CN(C(C)c2ccc3c(n2)OCO3)[C@H](CC)CN1c1cc(=O)n(C)c2cn(CC#N)nc12` (single isomer, unassigned) [Compound A75a] are 74 nM and 139 nM.
In the case of `CC[C@H]1CN(C(C)c2ccn3nc(F)cc3n2)[C@H](CC)CN1c1cc(=O)n(C)c2cn(CC#N)nc12` (single isomer, unassigned) [Compound A158a], the results for the IC50 on DGKα and against DGKζ were 330 nM and above 10000 nM, respectively.
Take `CC[C@H]1CN(C(C)c2ccc(C(C)(C)F)nc2)[C@H](CC)CN1c1cc(=O)n(C)c2cn(CC#N)nc12` (single isomer, unassigned) [Compound A46b]: the IC50 against DGKα was 913 nM; against DGKζ, 396 nM.
For `CC[C@H]1CN(C(C)c2ccc3c(c2)OC(F)(F)O3)[C@H](CC)CN1c1cc(=O)n(C)c2cn(CC#N)nc12` (stereo partly drawn) [Compound A197, 2-(7-((2S,5R)-4-(1-(2,2-difluorobenzo[d][1,3]dioxol-5-yl)ethyl)-2,5-diethylpiperazin-1-yl)-4-methyl-5-oxo-4,5-dihydro-2H-pyrazolo[4,3-b]pyridin-2-yl)acetonitrile], the IC50 came to 711 nM against DGKα and 252 nM at DGKζ.
For `CC[C@H]1CN([C@H](C)c2ccc(OC(C)C)cc2)[C@H](CC)CN1c1cc(=O)n(C)c2cn(CC#N)nc12` [Compound A33a], the IC50 was found to be 49 nM at DGKα and 45 nM against DGKζ.
The corresponding values for `CC[C@H]1CN(C(C)c2ccc(OC3(C)COC3)cc2)[C@H](CC)CN1c1cc(=O)n(C)c2cn(CC#N)nc12` (stereo partly drawn) [Compound A24, 2-(7-((2S,5R)-2,5-diethyl-4-(1-(4-((3-methyloxetan-3-yl)oxy)phenyl)ethyl)piperazin-1-yl)-4-methyl-5-oxo-4,5-dihydro-2H-pyrazolo[4,3-b]pyridin-2-yl)acetonitrile] are 100 nM and 427 nM.
For `CC[C@H]1CN(C(C)c2ccc(COCCOC)cc2)[C@H](CC)CN1c1cc(=O)n(C)c2cn(CC#N)nc12` (stereo partly drawn) [Compound A18, 2-(7-((2S,5R)-2,5-diethyl-4-(1-(4-((2-methoxyethoxy)methyl)phenyl)ethyl)piperazin-1-yl)-4-methyl-5-oxo-4,5-dihydro-2H-pyrazolo[4,3-b]pyridin-2-yl)acetonitrile], the IC50 amounted to 249 nM on DGKα and 97 nM on DGKζ.
As to `CC[C@H]1CN(C(C)c2ccc3ncc(Cl)n3n2)[C@H](CC)CN1c1cc(=O)n(C)c2cn(CC#N)nc12` (single isomer, unassigned) [Compound A167a], the IC50 at DGKα and against DGKζ was above 10000 nM throughout.
As to `CC[C@H]1CN(C(C)c2ccc3c(c2)CCO3)[C@H](CC)CN1c1cc(=O)n(C)c2cn(CC#N)nc12` (stereo partly drawn) [Compound A67, 2-(7-((2S,5R)-4-(1-(2,3-dihydrobenzofuran-5-yl)ethyl)-2,5-diethylpiperazin-1-yl)-4-methyl-5-oxo-4,5-dihydro-2H-pyrazolo[4,3-b]pyridin-2-yl)acetonitrile], the values for the IC50 against DGKα and against DGKζ were 245 nM and 71 nM, respectively.
Turning to `CC[C@@H]1CN(c2cc(=O)n(C)c3cn(CC#N)nc23)[C@@H](C)CN1[C@H](C)c1ccn2nc(C)c(F)c2n1` (single isomer, unassigned) [Compound A173b], the IC50 against DGKα is above 10000 nM; on DGKζ it was 2950 nM.
For `CC[C@H]1CN(C(C)c2ccc(CN3CCC(OC)C3)cc2)[C@H](CC)CN1c1cc(=O)n(C)c2cn(CC#N)nc12` (single isomer, unassigned) [Compound A203a] the same measures were 1110 nM and 2690 nM.
With `CC[C@H]1CN(C(C)c2nc3c(s2)CCCC3)[C@H](CC)CN1c1cc(=O)n(C)c2cn(CC#N)nc12` (single isomer, unassigned) [Compound A36b], the IC50 at DGKα was determined as 2110 nM; at DGKζ, 946 nM.
In the case of `CC[C@H]1CN(C(C)c2ccn3nccc3n2)[C@H](CC)CN1c1nc(=O)n(C)c2cn(CC#N)nc12` (single isomer, unassigned) [Compound A163b], the IC50 on DGKα came to 71 nM; on DGKζ it was 426 nM.
